Our source for the IC50 values is patent publication US20110172230A1, “UREA COMPOUND OR SALT THEREOF” (priority 2006, published 2011).

The IC50 is the midpoint of a concentration-inhibition curve. A high value points to a need for much substance.

The target of this assay is T1, FAAH (Homo sapiens, UniProt O00519).
T1 construct: host or cells: 5637 human bladder epithelial cancer-derived cells, not transfected
T1 sequence (O00519 1-579): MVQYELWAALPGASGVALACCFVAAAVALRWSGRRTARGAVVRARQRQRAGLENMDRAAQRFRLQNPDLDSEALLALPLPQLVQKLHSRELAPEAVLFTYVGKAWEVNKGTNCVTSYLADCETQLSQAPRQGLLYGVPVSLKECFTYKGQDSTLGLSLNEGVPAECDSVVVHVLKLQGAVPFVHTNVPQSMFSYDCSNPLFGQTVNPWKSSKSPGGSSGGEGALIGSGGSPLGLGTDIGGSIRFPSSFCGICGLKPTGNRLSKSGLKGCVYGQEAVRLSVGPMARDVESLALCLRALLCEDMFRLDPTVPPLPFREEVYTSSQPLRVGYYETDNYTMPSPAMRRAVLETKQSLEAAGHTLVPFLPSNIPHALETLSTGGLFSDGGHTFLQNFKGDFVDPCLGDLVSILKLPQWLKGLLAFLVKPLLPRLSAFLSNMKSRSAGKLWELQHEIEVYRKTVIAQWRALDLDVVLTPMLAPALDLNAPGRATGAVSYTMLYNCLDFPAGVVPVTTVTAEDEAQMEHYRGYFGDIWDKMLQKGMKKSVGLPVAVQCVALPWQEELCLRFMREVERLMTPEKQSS
The assay can be described thus: Screening for an FAAH activity-inhibiting substance with human bladder epithelial cancer-derived cell line 5637 cells (IC50). Format: cell-based. The settings on record: FAAH activity in human bladder epithelial cancer-derived 5637 cells, 37° C., 30 minutes. On the procedure:
Screening for an FAAH Activity-Inhibiting Substance with a Human Bladder Epithelial Cancer-Derived Cell
(1) Screening for an FAAH Activity Inhibiting Substance
Human bladder epithelial cancer-derived cell line 5637 cells (HTB-9; ATCC) were seeded on a 48-well cell culture plate in an amount of 1×10^5 cell/well, using 10% fetal bovine serum (HyClone)-containing RPMI1640 medium (Invitrogen Corporation). After incubated at 37° C. for 12 hours or longer, the cells were washed with 400 μl/well of a buffer (Hank's Balanced Salt Solution, 20 mM Hepes-NaOH (pH 7.4)). A test substance dissolved in DMSO was added to a substrate solution (the above buffer containing 3 μCi/ml radiolabeled anandamide (Anandamide [ethanolamine 1-^3H]) and 10 μM anandamide) so as to have a concentration from 0.003 nM to 30 nM. As a control, DMSO alone was added. 100 μl/well of the substrate solution was added to the above cells, and incubated in a CO2 incubator at 37° C. for 30 minutes. Next, the cell culture plate was transferred onto ice, and the substrate solution was removed by suction; and 75 μl/well of a cytolytic solution (the above buffer containing 0.5% Triton X-100, and 10 μM of FAAH-inhibitory activity-having compound, 3′-carbamoylbiphenyl-3-yl ester (URB597; Cayman chemical; Kathuria et al., Nature Med., Vol. 9, pp. 76-81, 2003)) was added thereto, followed by stirring. The resulting cell lysate in every well was individually transferred into a 1.5 ml sample tube, to which was added 150 μl of 1:1 (ratio by volume) chloroform/methanol solution, followed by vortexing. This was centrifuged (15000 rpm, 2 minutes), whereby the decomposed product, ethanolamine (ethanolamine 1-^3H) was separated in the upper layer (water/methanol layer) and the unreacted radiolabeled anandamide was in the lower layer (chloroform layer). 25 μl of the upper layer was transferred into a 96-well organic solvent-resistant white microplate (PicoPlate-96; Perkin Elmer, Inc.), 150 μl of Microscint-20 (Perkin Elmer, Inc.) was added thereto, and this was measured with a microplate scintillation counter (TopCount™; Beckman Coulter, Inc.). As compared with the control, the substance that gave a decreased value was selected as an FAAH activity-inhibiting substance.
(2) Measurement of the IC50 Value of the FAAH Activity Inhibiting Substance
The compound dissolved in DMSO to have a concentration of 10 mM was dissolved in the substrate solution so as to have a varying concentration from 0.003 nM to 30 nM. According to the method mentioned above, the compound was analyzed for its influence on FAAH activity. As a negative control, DMSO was used. As a positive control, URB597 was added to the substrate solution to have a concentration of 10 μM. Based on the measured value of the positive control, 0%, and on the measured value of the negative control, 100%, the IC50 value of the test substance was obtained. Furthermore, Ex represents Example No. as denoted below.

Where a name gives a salt, the structure may show the parent alone.

Take `O=C(Nc1cccnc1)N1CCN(Cc2ccnc(OCCC3CCCCC3)c2)CC1` [Example 30, 4-{[2-(2-cyclohexylethoxy)pyridin-4-yl]methyl}-N-pyridin-3-ylpiperazine-1-carboxamide trihydrochloride]: half-maximal inhibition (IC50) was put at 0.28 nM.
As to `O=C(Nc1cnccn1)N1CCN(C(=O)c2ccnc(OCCC3CCCCC3)c2)CC1` [Example 38, 4-[2-(2-cyclohexylethoxy)isonicotinoyl]-N-pyrazin-2-ylpiperazine-1-carboxamide], inhibition was half-maximal at 0.7 nM (IC50).
Turning to `O=C(Nc1ncccn1)N1CCN(C(=O)c2cccc(OCCC3CCCCC3)c2)CC1` [Example 155], the IC50 stood at 0.54 nM.
`O=C(Nc1cnccn1)N1CCN(C(=O)c2cccc(OCCC3CCCCC3)c2)CC1` [Example 210]: half-maximal inhibition (IC50) was put at 0.16 nM. This IC50 lies about 3.4-fold lower than the previous one.
In the case of `CN(CCC1CCCCC1)c1ccc(C(=O)N2CCN(C(=O)Nc3cccnc3)CC2)cc1` [Example 334], 0.18 nM corresponded to half-maximal inhibition (IC50).
To `COCC(=O)NC(=O)N1CCN(Cc2cccc(OCCC3CCCCC3)c2)CC1` [Example 439] belongs 0.43 nM.
